The source of these data is patent US4868290A, “4'-Deoxy-3"-demethoxy-3"-methylenedesmycosin derivatives and synthetic intermediates thereof” (Toyo Jozo Kabushiki Kaisha, priority 1987, dated 1989).

What all share (assay type): cell-based
The test system of one test is E. coli NIHJ JC-2. The test can be described thus: MIC, E. coli NIHJ JC-2. As to conditions: Escherichia coli, NIHJJC2. From the text:
(§1) The minimum inhibitory concentration (MIC) of compounds (1) according to the present invention is illustrated in Table 1.

Test [1] has as its system Enterococcus faecalis 1501. The test can be described thus: MIC, Enterococcus faecalis 1501.
From the text: as §1

A further test relates to Staph. aureus MS353C36. The test can be described thus: MIC, Staph. aureus MS353C36 (erythromycin resistant strain). As to conditions: Staphylococcus aureus.
From the text: as §1

In another test the test system is Staph. aureus 0119. Put plainly: MIC, Staph. aureus 0119. As to conditions: Staphylococcus aureus.
From the text: as §1

The subject of the next test is Staph. aureus Smith. Put plainly: MIC, Staph. aureus Smith. The settings on record: Staphylococcus aureus.
From the text: as §1

The test system of the next test is Staph. aureus MS353 AO. Put plainly: MIC, Staph. aureus MS353 AO. The settings on record: Staphylococcus aureus, MS353AO.
From the text: as §1

For test [2], the system named is Coryne. diphtheriae P.W.8. Put plainly: MIC, Coryne. diphtheriae P.W.8. As to conditions: Corynebacterium diphtheriae.
From the text: as §1

The test system of test [3] is Bacillus subtilis ATCC6633. Put plainly: MIC, Bacillus subtilis ATCC6633.
From the text: as §1

A further test concerns Staph. aureus 0126. The test can be described thus: MIC, Staph. aureus 0126. The settings on record: Staphylococcus aureus.
From the text: as §1

A further test relates to Strept. agalactiae 1020. The test can be described thus: MIC, Strept. agalactiae 1020. The settings on record: Streptococcus agalactiae.
From the text: as §1

The test system of the next test is Strept. pyogenes 1022. Put plainly: MIC, Strept. pyogenes 1022. The settings on record: Streptococcus pyogenes.
From the text: as §1

Another test relates to Staph. aureus 0127. The test can be described thus: MIC, Staph. aureus 0127. As to conditions: Staphylococcus aureus.
From the text: as §1

A further test relates to Staph. aureus MS353. Put plainly: MIC, Staph. aureus MS353. As to conditions: Staphylococcus aureus.
From the text: as §1

For a further test, the system named is Strept. pyogenes N.Y.5. The test can be described thus: MIC, Strept. pyogenes N.Y.5. As to conditions: Streptococcus pyogenes.
From the text: as §1

In a further test the test system is Staph. aureus ATCC6538P. Put plainly: MIC, Staph. aureus ATCC6538P. As to conditions: Staphylococcus aureus.
From the text: as §1

For test [4], the system named is Micrococcus luteus ATCC9341. The test can be described thus: MIC, Micrococcus luteus ATCC9341.
From the text: as §1

[5] abbreviates: Staph. aureus Smith, read-out: MIC.
[6] abbreviates: Staph. aureus 0126, read-out: MIC.
Setting [7] is: Staph. aureus MS353, read-out: MIC.

SMILES strings stand for the structures. Converted amounts (≈) assume the structure as drawn. Read-outs that look alike come from different tables or passages of the source.

The MIC is the lowest concentration that inhibits growth of the organism. For the compound `CCC1OC(=O)CC(O)C(C)C(OC2OC(C)C(O)C(N(C)C)C2O)C(CC=O)CC(C)C(=O)/C=C/C(C)=C/C1COC1OC(C)C(O)C(OC)C1OC` (stereo not shown) [Des, Desmycosin (4'-demycarosyltylosin), reference compound], the MIC against E. coli NIHJ JC-2 was greater than 100 µg/mL; in [1], 0.78 µg/mL (≈ 1.01 µM); with Staph. aureus MS353C36 it was 1.56 µg/mL (≈ 2.02 µM); in the test on Staph. aureus 0119, greater than 100 µg/mL; against Staph. aureus Smith, 1.56 µg/mL (≈ 2.02 µM); in the test with Staph. aureus MS353 AO it was 100 µg/mL (≈ 130 µM). For the same compound, the MIC was 0.1 µg/mL (≈ 0.13 µM) in test [2]; 0.78 µg/mL (≈ 1.01 µM) in [3]; 1.56 µg/mL (≈ 2.02 µM) in the test on Staph. aureus 0126 (0126); 0.2 µg/mL (≈ 0.259 µM) against Strept. agalactiae 1020; greater than 100 µg/mL against Strept. pyogenes 1022; greater than 100 µg/mL against Staph. aureus 0127. The MIC turned out to be 1.56 µg/mL (≈ 2.02 µM) in the test on Staph. aureus MS353 (MS353), 0.1 µg/mL (≈ 0.13 µM) against Strept. pyogenes N.Y.5, 0.78 µg/mL (≈ 1.01 µM) against Staph. aureus ATCC6538P and 0.2 µg/mL (≈ 0.259 µM) in test [4].

For `C=C1CC(C)OC(OCC2/C=C(C)/C=C/C(=O)C(C)CC(C)C(OC3OC(C)CC(N(C)C)C3O)C(C)C(O)CC(=O)OC2CC)C1OC` (stereo not shown) [Compound 4, 4',4"-di-deoxy-3"-demethoxy-3"-methylene-19-deformyldesmycosin], the MIC in the test with E. coli NIHJ JC-2 is greater than 100 µg/mL; in test [1], 0.39 µg/mL (≈ 0.562 µM); against Staph. aureus MS353C36, 0.2 µg/mL (≈ 0.288 µM); with Staph. aureus 0119, greater than 100 µg/mL; in the test with Staph. aureus Smith (setting [5]) it was 0.39 µg/mL (≈ 0.562 µM); against Staph. aureus MS353 AO, greater than 100 µg/mL. Besides, the MIC in [2] is no more than 0.05 µg/mL; in test [3] it was 0.1 µg/mL (≈ 0.144 µM); in the test with Staph. aureus 0126 (setting [6]), 0.78 µg/mL (≈ 1.12 µM); in the test with Strept. agalactiae 1020, no more than 0.05 µg/mL; against Strept. pyogenes 1022, 3.13 µg/mL (≈ 4.51 µM); in the test with Staph. aureus 0127 it was 100 µg/mL (≈ 144 µM). Further, the MIC in the test on Staph. aureus MS353 (setting [7]) is 0.2 µg/mL (≈ 0.288 µM); against Strept. pyogenes N.Y.5 it was 0.1 µg/mL (≈ 0.144 µM); in the test on Staph. aureus ATCC6538P, 0.1 µg/mL (≈ 0.144 µM); in test [4], no more than 0.05 µg/mL.

Take `C=C1CC(C)OC(OCC2/C=C(C)/C=C/C(=O)C(C)CC(C)C(OC3OC(C)C(O)C(N(C)C)C3O)C(C)C(OC(=O)N(C)C)CC(=O)OC2CC)C1OC` (stereo not shown) [Compound 6, 4"-deoxy-3"-demethoxy-3"-methylene-3-0-dimethylcarbamoyl-19-deformyldesmycosin]: the MIC against E. coli NIHJ JC-2 is greater than 100 µg/mL; in test [1], 0.78 µg/mL (≈ 0.999 µM); with Staph. aureus MS353C36, 0.78 µg/mL (≈ 0.999 µM); with Staph. aureus 0119, greater than 100 µg/mL; in the test with Staph. aureus Smith (setting [5]), 1.56 µg/mL (≈ 2 µM); against Staph. aureus MS353 AO, greater than 100 µg/mL. Moreover, the MIC in test [2] is 0.1 µg/mL (≈ 0.128 µM); in test [3] it was 0.1 µg/mL (≈ 0.128 µM); in the test on Strept. agalactiae 1020 it was 0.2 µg/mL (≈ 0.256 µM); against Strept. pyogenes 1022 it was greater than 100 µg/mL; with Staph. aureus 0127, greater than 100 µg/mL; with Staph. aureus MS353 (setting [7]), 0.39 µg/mL (≈ 0.499 µM). Besides, the MIC with Strept. pyogenes N.Y.5 came out at 0.78 µg/mL (≈ 0.999 µM); against Staph. aureus ATCC6538P, 0.39 µg/mL (≈ 0.499 µM); in test [4], 0.2 µg/mL (≈ 0.256 µM).

Turning to `C=C1CC(C)OC(OCC2/C=C(C)/C=C/C(=O)C(C)CC(C)C(OC3OC(C)C(O)C(N(C)C)C3O)C(C)C(O)CC(=O)OC2CC)C1OC` (stereo not shown) [Compound 3, 4"-deoxy-3"-demethoxy-3"-methylene-19-deformyldesmycosin], the MIC was greater than 100 µg/mL with E. coli NIHJ JC-2; 0.78 µg/mL (≈ 1.1 µM) in test [1]; 0.39 µg/mL (≈ 0.549 µM) with Staph. aureus MS353C36; greater than 100 µg/mL in the test with Staph. aureus 0119; 1.56 µg/mL (≈ 2.2 µM) in the test on Staph. aureus Smith (setting [5]); greater than 100 µg/mL against Staph. aureus MS353 AO. For the same compound, the MIC is no more than 0.05 µg/mL in [2]; 0.1 µg/mL (≈ 0.141 µM) in [3]; 0.1 µg/mL (≈ 0.141 µM) in the test on Strept. agalactiae 1020; 50 µg/mL (≈ 70.4 µM) in the test on Strept. pyogenes 1022; greater than 100 µg/mL with Staph. aureus 0127; 0.39 µg/mL (≈ 0.549 µM) in the test with Staph. aureus MS353 (setting [7]). For the same compound, the MIC with Strept. pyogenes N.Y.5 was 0.78 µg/mL (≈ 1.1 µM); in the test with Staph. aureus ATCC6538P, 0.39 µg/mL (≈ 0.549 µM); in test [4], 0.1 µg/mL (≈ 0.141 µM).

For the compound `CCC1OC(=O)CC(O)C(C)C(OC2OC(C)C(O)C(N(C)C)C2O)C(C)CC(C)C(=O)/C=C/C(C)=C/C1COC1OC(C)CC(=O)C1OC` (stereo not shown) [Compound 1, 4"-deoxy-3"-demethoxy-3"-oxo-19-deformyldesmycosin], the minimal inhibitory concentration (MIC) was greater than 100 µg/mL in the test on E. coli NIHJ JC-2; 1.56 µg/mL (≈ 2.19 µM) in test [1]; 0.39 µg/mL (≈ 0.548 µM) against Staph. aureus MS353C36; greater than 100 µg/mL against Staph. aureus 0119; 0.78 µg/mL (≈ 1.1 µM) in the test on Staph. aureus Smith (setting [5]); greater than 100 µg/mL in the test on Staph. aureus MS353 AO. For the same compound, the MIC in test [2] is 0.1 µg/mL (≈ 0.14 µM); in [3], 0.1 µg/mL (≈ 0.14 µM); in the test on Staph. aureus 0126 (setting [6]) it was 1.56 µg/mL (≈ 2.19 µM); with Strept. agalactiae 1020, 0.39 µg/mL (≈ 0.548 µM); in the test on Strept. pyogenes 1022, 50 µg/mL (≈ 70.2 µM); against Staph. aureus 0127, greater than 100 µg/mL. Further, the MIC came out at 0.39 µg/mL (≈ 0.548 µM) in the test on Staph. aureus MS353 (setting [7]), 0.2 µg/mL (≈ 0.281 µM) with Strept. pyogenes N.Y.5, 0.39 µg/mL (≈ 0.548 µM) with Staph. aureus ATCC6538P and 0.2 µg/mL (≈ 0.281 µM) in test [4].

In the case of `C=C1CC(C)OC(OCC2/C=C(C)/C=C/C(=O)C(C)CC(C)C(OC3OC(C)C(O)C(N(C)C)C3O)C(C)C(OC(=O)CC)CC(=O)OC2CC)C1OC` (stereo not shown) [Compound 5, 4"-deoxy-3"-demethoxy-3"-methylene-3-0-propionyl-19-deformyldesmycosin], the MIC against E. coli NIHJ JC-2 is greater than 100 µg/mL; in [1], 1.56 µg/mL (≈ 2.04 µM); with Staph. aureus MS353C36, 0.78 µg/mL (≈ 1.02 µM); against Staph. aureus 0119, greater than 100 µg/mL; with Staph. aureus Smith (setting [5]), 0.78 µg/mL (≈ 1.02 µM); with Staph. aureus MS353 AO it was greater than 100 µg/mL. Also, the MIC in test [2] is 0.2 µg/mL (≈ 0.261 µM); in test [3], no more than 0.05 µg/mL; in the test on Strept. agalactiae 1020 it was 0.2 µg/mL (≈ 0.261 µM); in the test with Strept. pyogenes 1022 it was 100 µg/mL (≈ 131 µM); in the test with Staph. aureus 0127, greater than 100 µg/mL; in the test on Staph. aureus MS353 (setting [7]), 0.78 µg/mL (≈ 1.02 µM). The MIC was found to be 0.78 µg/mL (≈ 1.02 µM) in the test with Strept. pyogenes N.Y.5, 0.39 µg/mL (≈ 0.509 µM) with Staph. aureus ATCC6538P and 0.2 µg/mL (≈ 0.261 µM) in test [4].

As for `CCC1OC(=O)CC(O)C(C)C(OC2OC(C)CC(N(C)C)C2O)C(C)CC(C)C(=O)/C=C/C(C)=C/C1COC1OC(C)C=C(OC)C1OC` (stereo not shown) [Compound 2, 4',4"-dideoxy-3",4"-di-dehydro-19-deformyldesmycosin], the MIC against E. coli NIHJ JC-2 was greater than 100 µg/mL; in test [1], 1.56 µg/mL (≈ 2.2 µM); in the test with Staph. aureus MS353C36, 0.2 µg/mL (≈ 0.282 µM); with Staph. aureus 0119, greater than 100 µg/mL; with Staph. aureus Smith (setting [5]) it was 0.39 µg/mL (≈ 0.549 µM); against Staph. aureus MS353 AO, greater than 100 µg/mL. Further, the minimal inhibitory concentration (MIC) in test [2] is 0.2 µg/mL (≈ 0.282 µM); in test [3], 0.1 µg/mL (≈ 0.141 µM); with Staph. aureus 0126 (setting [6]), 6.25 µg/mL (≈ 8.8 µM); against Strept. agalactiae 1020, 0.39 µg/mL (≈ 0.549 µM); in the test with Strept. pyogenes 1022, greater than 100 µg/mL; against Staph. aureus 0127 it was greater than 100 µg/mL. Further, the MIC is 0.2 µg/mL (≈ 0.282 µM) in the test on Staph. aureus MS353 (setting [7]), 0.2 µg/mL (≈ 0.282 µM) with Strept. pyogenes N.Y.5, 0.2 µg/mL (≈ 0.282 µM) against Staph. aureus ATCC6538P and no more than 0.05 µg/mL in test [4].
